Measured values published in ChEMBL document CHEMBL1201862, “PubChem BioAssay data set” (2004).
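Where inhibition never reached the appropriate level, the endpoint shown equals the highest concentration tested. Otherwise, values were interpolated linearly from a five-concentration, 48-hour dose response in 96-well plates. Abbreviation: GI50, concentration required for 50% inhibition of growth.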 Activity calls are given as the source filed them. Rule as the data show it: active = GI50 up to about 1.1 µM and inactive = higher.

Key:
Experiment in all cases: NCI tumour cell line growth inhibition, 48 h
KM12 = tested on: KM12
OVCAR-3 = tested on: OVCAR-3
786-0 = tested on: 786-0
NCI-H226 = tested on: NCI-H226
IGROV-1 = tested on: IGROV-1
SK-MEL-5 = tested on: SK-MEL-5
SN12C = tested on: SN12C
HL-60 = tested on: HL-60
COLO 205 = tested on: COLO 205
NCI/ADR-RES = tested on: NCI/ADR-RES
OVCAR-8 = tested on: OVCAR-8
HCT-15 = tested on: HCT-15
PC-3 = tested on: PC-3
HOP-92 = tested on: HOP-92
SW-620 = tested on: SW-620
HOP-62 = tested on: HOP-62
CAKI-1 = tested on: CAKI-1

Row | SMILES | GI50 (KM12) | GI50 (OVCAR-3) | GI50 (786-0) | GI50 (NCI-H226) | GI50 (IGROV-1) | GI50 (SK-MEL-5) | GI50 (SN12C) | GI50 (HL-60) | GI50 (COLO 205) | GI50 (NCI/ADR-RES) | GI50 (OVCAR-8) | GI50 (HCT-15) | GI50 (PC-3) | GI50 (HOP-92) | GI50 (SW-620) | GI50 (HOP-62) | GI50 (CAKI-1)
1 | COc1ccc(-c2csc3c2-n2cccc2C3=O)cc1 | 0.0401 µM (active) | 0.0416 µM (active) | 0.303 µM (active) | 4.46 µM (inactive) | 0.258 µM (active) | 0.0581 µM (active) | 0.0885 µM (active) | < 0.0176 µM (active) | 0.215 µM (active) | < 0.0204 µM (active) | 0.0867 µM (active) | 0.0653 µM | < 0.0367 µM (active) | 3.12 µM (inactive) | < 0.0232 µM (active) | 0.0656 µM (active) | 0.268 µM (active)
2 | CCC(=O)NI1OC(=O)c2ccccc21 | > 100 µM (inactive) | > 100 µM (inactive) | > 100 µM (inactive) | > 100 µM (inactive) | > 100 µM (inactive) | > 100 µM (inactive) | > 100 µM (inactive) | 47.3 µM (inactive) | > 100 µM (inactive) | > 100 µM (inactive) | > 100 µM (inactive) | 43.5 µM | > 100 µM (inactive) | > 100 µM (inactive) | > 100 µM (inactive) | > 100 µM (inactive) | 21.6 µM (inactive)
3 | CCNc1ncnc2nn[nH]c12 | > 100 µM (inactive) | > 100 µM (inactive) | > 100 µM (inactive) | > 100 µM (inactive) | > 100 µM (inactive) | > 100 µM (inactive) | > 100 µM (inactive) | > 100 µM (inactive) | > 100 µM (inactive) | > 100 µM (inactive) | > 100 µM (inactive) | > 100 µM | > 100 µM (inactive) | > 100 µM (inactive) | > 100 µM (inactive) | > 100 µM (inactive) | > 100 µM (inactive)
4 | Cn1c(=O)c2c(nc(Nc3ccc(Cl)cc3)n3c(=O)n(-c4ccccc4)c(=O)n23)n(C)c1=O | > 100 µM (inactive) | > 100 µM (inactive) | > 100 µM (inactive) | > 100 µM (inactive) | > 100 µM (inactive) | > 100 µM (inactive) | > 100 µM (inactive) | > 100 µM (inactive) | > 100 µM (inactive) | > 100 µM (inactive) | > 100 µM (inactive) | > 100 µM | > 100 µM (inactive) | > 100 µM (inactive) | > 100 µM (inactive) | > 100 µM (inactive) | > 100 µM (inactive)
5 | NNC(=O)c1cc([N+](=O)[O-])ccc1NC(=O)C12CC3CC(CC(C3)C1)C2 | 20.1 µM (inactive) | 3.15 µM (inactive) | 11.7 µM (inactive) | 4.62 µM (inactive) | 1.9 µM (inactive) | 19.2 µM (inactive) | 8.63 µM (inactive) | 3.09 µM (inactive) | 6.04 µM (inactive) | 15.9 µM (inactive) | 14.9 µM (inactive) | 0.635 µM | 13 µM (inactive) | 12.9 µM (inactive) | 7.74 µM (inactive) | 16.3 µM (inactive) | 5.7 µM (inactive)
6 | COc1cc(/C=N\O)cc(/C=N/O)c1O | > 100 µM (inactive) | 63 µM (inactive) | – | 24.2 µM (inactive) | > 100 µM (inactive) | 40 µM (inactive) | 31 µM (inactive) | 27.7 µM (inactive) | 22.5 µM (inactive) | 58.1 µM (inactive) | 37.1 µM (inactive) | > 100 µM | 28.9 µM (inactive) | 21.1 µM (inactive) | 73.1 µM (inactive) | 21.9 µM (inactive) | 28.6 µM (inactive)
7 | CCCCCCCCC[C@@H]1C[C@@H]2CCC3C(C(=O)OC)=C(C)N=C(N1)N32 (stereo partly specified) | 3.43 µM (inactive) | 3.21 µM (inactive) | 4.22 µM (inactive) | 6.98 µM (inactive) | 4.72 µM (inactive) | 5.32 µM (inactive) | 14.6 µM (inactive) | 3.47 µM (inactive) | 3.37 µM (inactive) | 18.7 µM (inactive) | 4.79 µM (inactive) | 16.5 µM | 3.64 µM (inactive) | 10 µM (inactive) | 15.6 µM (inactive) | 6.17 µM (inactive) | 17.3 µM (inactive)
8 | CC(=O)OC1CC[C@@]2(C)C(=CC[C@@H]3[C@@H]2CC[C@]2(C)Nc4c(cnn4-c4ccc(F)cc4)C[C@@H]32)C1 (stereo partly specified) | 16.2 µM (inactive) | > 39.4 µM (inactive) | 3.26 µM (inactive) | 59.7 µM (inactive) | 42.2 µM (inactive) | 25.9 µM (inactive) | > 100 µM (inactive) | 2.93 µM (inactive) | 5.45 µM (inactive) | 60.1 µM (inactive) | 40 µM (inactive) | 20 µM | 23.1 µM (inactive) | 53.5 µM (inactive) | 22.9 µM (inactive) | 5.5 µM (inactive) | 6.1 µM (inactive)
9 | CC(C)=CC1C(COC(=O)c2cc3c(cc2Cl)OCO3)C1(C)C (stereo unspecified) | 28.2 µM (inactive) | 25.2 µM (inactive) | 37.8 µM (inactive) | 42.4 µM (inactive) | 45.2 µM (inactive) | 20 µM (inactive) | 39.5 µM (inactive) | 20.9 µM (inactive) | – | 35.6 µM (inactive) | 34.8 µM (inactive) | 29 µM | 35.5 µM (inactive) | 23.8 µM (inactive) | 33.1 µM (inactive) | 38.3 µM (inactive) | 22.7 µM (inactive)
